{"source": "patent US20130058957A1", "about": "“DENDRITIC CELL IMMUNORECEPTOR AGONIST” (THE UNIVERSITY OF TOKYO, priority 2010, published 2013)", "key": {"[1]": {"system": "bone marrow cell-derived osteoclasts (OC formation)", "experiment": "In vitro osteoclast formation, count of TRAP-positive multinucleate cells", "assay_type": "cell-based, mouse", "details": "for OC differentiation in the presence of carbohydrate chain: carbohydrate chain 10 ng/mL, FIG. 8e; for OC formation (number of TRAP-positive MNCs): KS-II 100 ng/mL, FIGS. 8c, 8d", "protocol": "Nonadherent bone marrow cells were seeded in a well plate (in a 24-well plate at 5×10^5 cells/well or in a […] at 3×10^6 cells/well) and were cultured in α-MEM (Gibco BRL) containing 10% FCS (manufactured by Biowest AG) and 10 ng/mL M-CSF (manufactured by R&D Systems, Inc.). After two days, nonadherent cells (including lymphocytes) were washed away, and remaining adherent cells were used as bone marrow-derived macrophages (BMMs). These osteoclast precursor cells (pOCs) were further cultured in the presence of 100 ng/mL of soluble RANKL (manufactured by PeproTech Inc. or Oriental Yeast Co., Ltd.) and 10 ng/mL of M-CSF to obtain osteoclasts. After three days, the osteoclasts were fixed in 10% neutral buffered formalin for three minutes, further kept in a mixture of ethanol/acetone (50:50 v:v) for 1 minute and subsequently incubated in a TRAP staining solution (Naphthol AS-MX phosphate: 5 mg, N,N-dimethylformamide: 0.5 mL, fast red violet LB salt: 30 mg, 0.1 M sodium acetate buffer (pH 5.0) containing 50 mM sodium tartrate: 50 mL) at room temperature. The number of TRAP-positive multinucleate cells (MNCs having three or more nuclei) was counted.\n(§1) In order to investigate the influence of GM-CSF on osteoclast formation, mouse GM-CSF enzyme immunoassay (manufactured by PerSeptive Biosystems, Inc.), recombinant GM-CSF (manufactured by PeproTech Inc.), and anti-mouse GM-CSF neutralizing antibody (manufactured by R&D Systems, Inc.) were used. Furthermore, in the proliferation assay, pOCs were seeded (in a 96-well plate at 1×10^4 cells/well) and cultured in the presence of 10 ng/mL M-CSF only or M-CSF and 100 ng/mL RANKL or 20 ng/mL GM-CSF for three days. Subsequently, the cells were exposed to [^3H]TdR (0.5 μCi/mL) overnight."}, "[2]": {"system": "calvarial OBs", "experiment": "Mineralization of calvarial osteoblasts (alizarin red and ALP staining of osteogenic culture)", "assay_type": "cell-based, mouse", "details": "FIG. 10f", "protocol": "Primary osteoblasts were isolated from the calvaria of a new born mouse. The calvaria was washed with PBS and was digested in α-MEM containing 0.25% trypsin and 2 mg/mL collagenase P (manufactured by Roche) at 37° C. for 20 minutes. The supernatant was removed, and the cells were further digested for 60 minutes.\nIn order to induce osteogenesis, primary osteoblasts (in a 96-well plate at 2×10^4 cells/well, in a 24-well plate at 5×10^4 cells/well, or in a 6-well plate at 2×10^5 cells/well) were cultured to confluent, and the culture medium was replaced by a culture medium containing 10 mM β-glycerophosphate and 50 μg/mL ascorbic acid. The culture medium was replaced three times in 21 days.\nThe osteoblasts cultured for 21 days were stained with alizarin red, von Kossa, and alkaline phosphatase (ALP).\nThe culture solution was removed from the osteoblasts cultured for 21 days by using PBS, and the osteoblasts were fixed with 3.7% formalin solution (Nacalai Tesque, Inc.) for 10 minutes. […]\nPrimary osteoblasts were cultured in a 96-well plate for 21 days and were measured with a TRACP & ALP Assay Kit (TaKaRa Bio Inc.). […] The reaction was terminated with 50 μL of a reaction terminating solution, and subsequently the activity was measured with MICROPLATE READER MTP-300 (CORONA ELECTRIC Co., Ltd.) at OD405."}, "[3]": {"target": "T1, recombinant mouse DCIR (mDCIR) (Mus musculus, UniProt Q9QZ15)", "T1 construct": "containing an extracellular domain (99th to 238th residues) was expressed as an inclusion body in E. coli; made in house", "T1 sequence (Q9QZ15 99-238)": "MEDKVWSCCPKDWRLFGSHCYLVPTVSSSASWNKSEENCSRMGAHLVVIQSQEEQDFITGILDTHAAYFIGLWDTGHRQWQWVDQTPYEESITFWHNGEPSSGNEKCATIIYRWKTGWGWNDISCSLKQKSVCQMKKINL", "experiment": "Carbohydrate chain binding assay by ELISA", "details": "KS-II from bovine articular cartilage immobilised on ELISA plate; FIG. 8b", "protocol": "Carbohydrate chain binding assay was performed in accordance with the method described in J. Bio. Chem., 2004, 279, 29043-29049. KS-II was diluted to 2 mg/mL with 100 mM sodium acetate (pH 5.5) and was oxidized with 2 mM sodium metaperiodate on ice for 1 hour to obtain a reactive aldehyde group. After further dilution, KS-II was incubated on a Covalink ELISA plate at 4° C. overnight and was reduced with 0.3% sodium cyanoborohydride at room temperature for 1.5 hours for covalent bonding. The plate was washed and was blocked with 2% bovine serum albumin (fraction V: manufactured by Sigma Corp.) at 37° C. for two hours. A recombinant mouse DCIR (mDCIR) containing an extracellular domain (99th to 238th residues) was expressed as an inclusion body in E. coli BL21 (DE3) pLysS using a pGMT7 plasmid and the […] was refolded by a typical dilution method. The mDCIR was incubated on the blocked and refolded plate at 4° C. overnight. Binding of protein was detected using anti-DCIR antibodies (a mixture of 320507 and 320511: manufactured by R&D Systems, Inc.) and HRP-linked rat IgG (manufactured by Zymed) in the presence of a TMB substrate (manufactured by Dako)."}, "[4]": {"system": "osteoclast precursor cells (pOCs)", "experiment": "Osteoclast differentiation with hybridoma supernatant or KS-II, count of TRAP-positive osteoclasts", "assay_type": "cell-based", "details": "KS-II 10 ng/mL; M-CSF 10 ng/mL + RANKL 100 ng/mL, three days; versus untreated; FIG. 13", "protocol": "Furthermore, activities of the above-mentioned antibodies on osteoclast formation were evaluated using the activity of keratan sulfate as an indicator. Nonadherent bone marrow cells were seeded in a well plate (a 96-well plate at 1×10^5 cells/well) and were cultured in α-MEM (Gibco BRL) containing 10% FCS (manufactured by Biowest AG) and 10 ng/mL M-CSF (manufactured by R&D Systems, Inc.). After two days, the nonadherent cells (including lymphocytes) were washed away, and the remaining adherent cells were used as bone marrow-derived macrophages (BMMs). These osteoclast precursor cells (pOCs) were further cultured in the presence of 100 ng/mL of soluble RANKL (manufactured by PeproTech Inc. or Oriental Yeast Co., Ltd.) and 10 ng/mL of M-CSF to obtain osteoclasts. During the culturing, the hybridoma supernatant (one-tenth amount) or keratan sulfate (KS-II: 10 ng/mL) was added to the culture medium. After three days, the cells were collected and stained with TRAP. The number of TRAP-positive osteoclasts (having three or more nuclei) was counted. Untreated cells were used as a control (NT)."}, "[5]": {"target": "T2, DCIR (Mus musculus, UniProt Q9QZ15)", "T2 construct": "immunoblot analysis for ITIM phosphorylation and SHP-1 recruitment in pOC lysate after KS-II stimulation; endogenous in cells; host or cells: mouse bone-marrow-derived osteoclast precursor cells (pOC)", "T2 sequence (Q9QZ15 1-238)": "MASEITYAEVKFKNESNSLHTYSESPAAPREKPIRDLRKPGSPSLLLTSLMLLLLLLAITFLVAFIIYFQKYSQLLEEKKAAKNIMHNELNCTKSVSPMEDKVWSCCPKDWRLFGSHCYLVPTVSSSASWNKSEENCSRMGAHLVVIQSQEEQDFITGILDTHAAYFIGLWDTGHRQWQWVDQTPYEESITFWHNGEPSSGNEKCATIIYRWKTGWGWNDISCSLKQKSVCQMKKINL", "experiment": "Immunoprecipitation/immunoblot analysis of DCIR activation in pOC lysate after KS-II stimulation", "assay_type": "cell-based", "details": "immunoprecipitated with anti-DCIR antibody, FIG. 8f", "description": "In immunoprecipitation analysis, Protein G-Sepharose 4 Fast Flow (manufactured by GE Healthcare), mouse DCIR-specific antibody (320511: manufactured by R&D Systems, Inc.), phospho-Tyr (4G10: manufactured by Millipore), and SHP-1 (HG213: Upstate) were used. As the secondary antibody, a rabbit IgG-specific HRP-linked polyclonal antibody (manufactured by Cell Signaling) or a rat IgG-specific HRP-linked polyclonal antibody (manufactured by Zymed) was used."}, "[6]": {"system": "TNF-α", "experiment": "TNF-α production in CpG-containing culture, measured by ELISA", "assay_type": "cell-based", "details": "CpG 1 μM, 12 hours; KS-II 10 ng/mL, versus CpG alone; FIG. 12", "protocol": "The anti-DCIR antibodies derived from hybridomas prepared in Example 4 were evaluated for binding ability to DCIR. Since DCIR has been reported to participate in suppression of immunoreaction (Nature Medicine, 2008, vol. 14, no. 2: 176-180), the DCIR-binding ability of each antibody was evaluated using expression of tumor necrosis factor α (TNF-α), which is an inflammatory cytokine, as a standard.\nThe hybridoma prepared in Example 4 was cultured in a culture medium containing CpG (concentration: 1 μM) for 12 hours, and the culture supernatant was collected. Separately, CpG ODN 1668 (Operon Technologies, Inc.) was cultured in the same medium or a medium further containing keratan sulfate (KS-II: 10 ng/mL), and the culture supernatant was collected. As a control, the cells were cultured in a CpG-free culture medium (NT). The TNF-α amount in each supernatant was measured by ELISA."}, "[7]": {"system": "OPG/RANKL ratio", "experiment": "Real-time RT-PCR of OPG/RANKL ratio in calvarial OBs", "assay_type": "cell-based", "details": "WT mouse-derived OBs only (not KO); FIGS. 10k, 10l", "protocol": "Semi-quantitative RT-PCR and real-time RT-PCR were slightly modified, but basically performed in accordance with the methods described in Nature Medicine, 2008, vol. 14, no. 2: 176-180 and Arthritis Res. Ther., 2006, 8, R100, 1-13. Total RNA was prepared by a typical acid guanidinium thiocyanate-phenol-chloroform method or a method using Sepasol-RNA I Super (manufactured by Nacalai Tesque, Inc.). The prepared RNA was reverse transcribed with SuperScript III First-Strand Synthesis System for RT-PCR (manufactured by Invitrogen) to prepare cDNA.\nThe real-time RT-PCR was performed using primers shown in Table 1, SYBR Green qPCR kit (manufactured by Invitrogen), and iCycler (manufactured by Bio-Rad Laboratories, Inc.)."}, "[8]": {"system": "osteoclast precursor cells (pOCs)", "experiment": "Proliferation assay using pOC after GM-CSF stimulation", "assay_type": "cell-based, mouse", "details": "Dcir−/− pOCs; M-CSF 10 ng/mL and GM-CSF 20 ng/mL", "protocol": "as §1"}}}
{"molecule": "CC(=O)N[C@H]1C(O)O[C@H](CO)[C@@H](O[C@@H]2O[C@H](CO)[C@H](O)[C@H](O)[C@H]2O)[C@@H]1O", "note": "(some centres unmarked) [LacNAc, N-acetyllactosamine]", "values": [{"measurement": "OC differentiation in the presence of carbohydrate chain", "setting": "[1]", "value": "not influenced"}]}
{"molecule": "chondroitin sulfate A", "values": [{"measurement": "OC differentiation in the presence of carbohydrate chain", "setting": "[1]", "value": "not influenced"}]}
{"molecule": "dermatan sulfate", "values": [{"measurement": "OC differentiation in the presence of carbohydrate chain", "setting": "[1]", "value": "not influenced"}]}
{"molecule": "keratan sulfate-II [KS-II]", "values": [{"measurement": "mineralization of OBs", "setting": "[2]; Dcir−/− OBs", "value": "does not suppress"}, {"measurement": "mineralization of OBs", "setting": "[2]; WT OBs", "value": "suppresses"}, {"measurement": "binding of recombinant mouse DCIR to KS-II", "setting": "[3]", "value": "concentration-dependently binds"}, {"measurement": "differentiation to osteoclast (TRAP-positive, three or more nuclei)", "setting": "[4]", "value": "suppressed"}, {"measurement": "phosphorylation of immunoreceptor tyrosine-based inhibitory motif (ITIM) in DCIR", "setting": "[5]", "value": "concentration-dependently accelerates"}, {"measurement": "recruitment of tyrosine phosphatase SHP-1 in DCIR", "setting": "[5]", "value": "concentration-dependently accelerates"}, {"measurement": "OC formation (number of TRAP-positive MNCs)", "setting": "[1]; Dcir−/− cell culture", "value": "did not inhibit"}, {"measurement": "OC formation (number of TRAP-positive MNCs)", "setting": "[1]; wild-type (WT) bone marrow cell culture", "value": "considerably inhibited"}, {"measurement": "TNF-α production", "setting": "[6]", "value": "suppressed"}, {"measurement": "OPG/RANKL ratio", "setting": "[7]", "value": "decreases"}]}
{"molecule": "GM-CSF: recombinant mouse GM-CSF (manufactured by PeproTech Inc.) (protein, UniProt P01587 18-141, looked up) Granulocyte-macrophage …: APTRSPITVTRPWKHVEAIKEALNLLDDMPVTLNEEVEVVSNEFSFKKLTCVQTRLKIFEQGLRGNFTKLKGALNMTASYYQTYCPPTPETDCETQVTTYADFIDSLKTFLTDIPFECKKPGQK", "values": [{"measurement": "proliferation of pOCs", "setting": "[8]", "value": "significantly increased"}]}
